Data published in ChEMBL document CHEMBL4229331, “Synthesis and biological evaluation of 173-dicarboxylethyl-pyropheophorbide-a amide derivatives for photodynamic therapy” (Bioorg Med Chem Lett, 2018).
Activity calls are given as the source filed them. No cut-off for these calls is given here.

Key:
[1] = […] assessed as singlet oxygen release by measuring DPBF oxidation rate in presence of 650 nm light by UV-vis spectrophotometer; format: functional
[2] = Octanol/water partition coefficient, log P of the compound by shake-flask method; format: physicochemical
[3] = Dark toxicity in human ECA109 cells assessed as decrease in cell viability up to 1 uM after 24 hrs by MTT assay; format: cell-based; conditions: eca-109, 24 h
ECa-109 cell line [4] = test: Photocytotoxicity against human ECA109 cells assessed as decrease in cell viability at 1 uM preincubated for 24 hrs followed by laser irradiation at 1 to 32 J/Cm'2 by MTT assay; format: functional, cell-based
[5] = Dark toxicity in human ECA109 cells assessed as cell viability at 5 uM after 24 hrs by MTT assay (reference value: 80%); format: cell-based, ECa-109; conditions: read-out: Activity
ECa-109 cell line [6] = test: Induction of apoptosis in human ECA109 cells assessed as late apoptotic/necrotic cells at 5 uM preincubated for 24 hrs followed by laser irradiation at 16 J/cm'2 and measured after 24 hrs by annexin V/propidium iodide staining-based flow cytometric method (reference value: 0.08%); format: functional
ECa-109 cell line [7] = test: Induction of apoptosis in human ECA109 cells assessed as increase in late apoptotic/necrotic cells preincubated for 24 hrs followed by laser irradiation at 16 J/cm'2 and measured after 24 hrs by annexin V/propidium iodide staining-based flow cytometric method; format: functional, cell-based
ECa-109 cell line [8] = test: Induction of apoptosis in human ECA109 cells assessed as early apoptotic cells at 1 uM preincubated for 24 hrs followed by laser irradiation at 16 J/cm'2 and measured after 24 hrs by annexin V/propidium iodide staining-based flow cytometric method (reference value: 2.45%); format: functional
ECa-109 cell line [9] = test: Antitumor activity against human ECA109 cells xenografted in BALB/c nude mouse assessed as decrease in tumor volume at 3 mg/kg, iv measured at 3 to 21 days post treatment in presence of 100 J/cm2 laser irradiation; format: functional, organism-based
ECa-109 cell line [10] = test: Induction of apoptosis in human ECA109 cells assessed as late apoptotic/necrotic cells at 1 uM preincubated for 24 hrs followed by laser irradiation at 16 J/cm'2 and measured after 24 hrs by annexin V/propidium iodide staining-based flow cytometric method (reference value: 0.08%); format: functional
[11] = Drug uptake in nuclear membrane of human ECA109 cells at 5 uM incubated for 4 hrs in dark condition by Hoechst 33342 staining-based confocal fluorescence microscopy; format: ADME, cell membranes; conditions: eca-109, 4 h
ECa-109 cell line [12] = test: Induction of apoptosis in human ECA109 cells assessed as early apoptotic cells at 5 uM preincubated for 24 hrs followed by laser irradiation at 16 J/cm'2 and measured after 24 hrs by annexin V/propidium iodide staining-based flow cytometric method (reference value: 2.45%); format: functional
ECa-109 cell line [13] = test: Decrease in tumor volume in human ECA109 cells xenografted in BALB/c nude mouse at 3 mg/kg, iv measured at 21 days post treatment in absence of laser irradiation; format: ADME, organism-based; conditions: in vivo, 504 h
[14] = Drug uptake in cytoplasm of human ECA109 cells at 5 uM incubated for 4 hrs in dark condition by Hoechst 33342 staining-based confocal fluorescence microscopy; format: ADME, subcellular; conditions: eca-109, 4 h

Row | Structure (SMILES) | logP [2] | Drug uptake [11] | Drug uptake [14] | K [1] [min⁻¹] | Activity [3] | Activity (ECa-109 cell line [4]) | viability at 24 h, 5 µM [5] [%] | Activity (ECa-109 cell line [6]) [%] | Activity (ECa-109 cell line [7]) | Activity (ECa-109 cell line [8]) [%] | Activity (ECa-109 cell line [9]) | Activity (ECa-109 cell line [10]) [%] | Activity (ECa-109 cell line [12]) [%] | Activity (ECa-109 cell line [13])
1 | CCCCCOC(C)c1c(C)c2cc3nc(c4c5[nH]c(cc6nc(cc1[nH]2)C(C)=C6CC)c(C)c5C(=O)C4)[C@@H](CCC(=O)N(CCC(=O)O)CCC(=O)O)[C@@H]3C (stereo partly specified) | 3.1 | – | – | 0.0241 | Non-Toxic | Active | 50 | – | – | – | – | – | – | –
2 | C=Cc1c(C)c2cc3nc(c4c5[nH]c(cc6nc(cc1[nH]2)C(C)=C6CC)c(C)c5C(=O)C4)[C@@H](CCC(=O)O)[C@@H]3C | – | – | – | 0.0578 | – | – | – | – | – | – | – | – | – | –
3 | C=Cc1c(C)c2cc3nc(c4c5[nH]c(cc6nc(cc1[nH]2)C(C)=C6CC)c(C)c5C(=O)C4)[C@@H](CCC(=O)N(CCC(=O)OC)CCC(=O)OC)[C@@H]3C | 3.3 | – | – | – | – | – | – | – | – | – | – | – | – | –

Further lines, with some results ahead:

Row | logP [2] | Drug uptake [11] | Drug uptake [14] | Structure (SMILES) | K [1] [min⁻¹] | Activity [3] | Activity (ECa-109 cell line [4]) | viability at 24 h, 5 µM [5] [%] | Activity (ECa-109 cell line [6]) [%] | Activity (ECa-109 cell line [7]) | Activity (ECa-109 cell line [8]) [%] | Activity (ECa-109 cell line [9]) | Activity (ECa-109 cell line [10]) [%] | Activity (ECa-109 cell line [12]) [%] | Activity (ECa-109 cell line [13])
4 | 2.7 | – | – | CCCOC(C)c1c(C)c2cc3nc(c4c5[nH]c(cc6nc(cc1[nH]2)C(C)=C6CC)c(C)c5C(=O)C4)[C@@H](CCC(=O)N(CCC(=O)O)CCC(=O)O)[C@@H]3C (stereo partly specified) | 0.0266 | Non-Toxic | Active | 50 | – | – | – | – | – | – | –
5 | 2.3 | Active | Active | CCC1=C(C)c2cc3[nH]c(cc4nc(c5c6[nH]c(cc1n2)c(C)c6C(=O)C5)[C@@H](CCC(=O)N(CCC(=O)O)CCC(=O)O)[C@@H]4C)c(C)c3C(C)OC (stereo partly specified) | 0.0596 | Non-Toxic | Active | 50 | 81.22 | Dose-dependent effect | 7.38 | Active | 60.46 | 5.41 | Non-Toxic
